The values below are quoted from earlier work in US20170165627A1, “MICROENCAPSULATION PROCESS” (ENCAPSYS, LLC, priority 2015, published 2017).

≈ marks a conversion by molar mass, not a printed value.

For series [1] the following is noted: temperature at which the initiator has a 10 hour half-life.
The conditions of series [2]: @ 25° C.

As to `CC(C)(N=NC(C)(C)C(=N)N)C(=N)N.Cl` [Example V-50, 2,2′-azobis(2-amidinopropane) hydrochloride], in series [1], the “10 hour ½ life at (temperature)” value is “½ life at 56 °C”.
On to `N#CC1(N=NC2(C#N)CCCCC2)CCCCC1` [Vazo-88, 1,1′-Azobis(cyclohexanecarbonitrile)], for which the “10 hour ½ life at (temperature)” value in series [1] was 88 °C.
Regarding `CCC(C)(C#N)N=NC(C)(C#N)CC` (centres unmarked) [Vazo-67, 2,2′-azobis(2-methylbutyronitrile)], the “10 hour ½ life at (temperature)” value in series [1] was 67 °C.
Take “Polyethylene glycol 400 diacrylate [SR344]”: in series [2], the Solubility in water result was “Water soluble”.
For the compound “polyethylene glycol (600) diacrylate [SR610]”, the Solubility in water entry in series [2] is reported as “Water soluble”.
With `C=CC(=O)OCCOCCOCC` [SR256, 2-(2-ethoxyethoxy) ethyl acrylate], in series [2], the Solubility in water is 25.33 mg/mL (≈ 135 mM).
As to `CC(C)(N=NC(C)(C)C(=O)NCCO)C(=O)NCCO` [VA-086, 2,2′-Azobis[2-methyl-N-(2-hydroxyethyl)propionamide]], in series [1], the “10 hour ½ life at (temperature)” value is 10 hour ½ life at 86 °C.
Turning to “Polyethylene glycol 200 diacrylate [SR259]”, in series [2], the Solubility in water was 40.68 mg/mL.
